According to paper PMC4133117 (Biochemical pharmacology, 2014):

Tests used:
ABCB1 [1] = molecular target: T1, ABCB1 (Homo sapiens, UniProt P08183); test: vanadate-sensitive ATPase stimulation in crude membranes; format: biochemical
ABCB1 [2] = molecular target: T1, ABCB1

T1 sequence (P08183 whole entry): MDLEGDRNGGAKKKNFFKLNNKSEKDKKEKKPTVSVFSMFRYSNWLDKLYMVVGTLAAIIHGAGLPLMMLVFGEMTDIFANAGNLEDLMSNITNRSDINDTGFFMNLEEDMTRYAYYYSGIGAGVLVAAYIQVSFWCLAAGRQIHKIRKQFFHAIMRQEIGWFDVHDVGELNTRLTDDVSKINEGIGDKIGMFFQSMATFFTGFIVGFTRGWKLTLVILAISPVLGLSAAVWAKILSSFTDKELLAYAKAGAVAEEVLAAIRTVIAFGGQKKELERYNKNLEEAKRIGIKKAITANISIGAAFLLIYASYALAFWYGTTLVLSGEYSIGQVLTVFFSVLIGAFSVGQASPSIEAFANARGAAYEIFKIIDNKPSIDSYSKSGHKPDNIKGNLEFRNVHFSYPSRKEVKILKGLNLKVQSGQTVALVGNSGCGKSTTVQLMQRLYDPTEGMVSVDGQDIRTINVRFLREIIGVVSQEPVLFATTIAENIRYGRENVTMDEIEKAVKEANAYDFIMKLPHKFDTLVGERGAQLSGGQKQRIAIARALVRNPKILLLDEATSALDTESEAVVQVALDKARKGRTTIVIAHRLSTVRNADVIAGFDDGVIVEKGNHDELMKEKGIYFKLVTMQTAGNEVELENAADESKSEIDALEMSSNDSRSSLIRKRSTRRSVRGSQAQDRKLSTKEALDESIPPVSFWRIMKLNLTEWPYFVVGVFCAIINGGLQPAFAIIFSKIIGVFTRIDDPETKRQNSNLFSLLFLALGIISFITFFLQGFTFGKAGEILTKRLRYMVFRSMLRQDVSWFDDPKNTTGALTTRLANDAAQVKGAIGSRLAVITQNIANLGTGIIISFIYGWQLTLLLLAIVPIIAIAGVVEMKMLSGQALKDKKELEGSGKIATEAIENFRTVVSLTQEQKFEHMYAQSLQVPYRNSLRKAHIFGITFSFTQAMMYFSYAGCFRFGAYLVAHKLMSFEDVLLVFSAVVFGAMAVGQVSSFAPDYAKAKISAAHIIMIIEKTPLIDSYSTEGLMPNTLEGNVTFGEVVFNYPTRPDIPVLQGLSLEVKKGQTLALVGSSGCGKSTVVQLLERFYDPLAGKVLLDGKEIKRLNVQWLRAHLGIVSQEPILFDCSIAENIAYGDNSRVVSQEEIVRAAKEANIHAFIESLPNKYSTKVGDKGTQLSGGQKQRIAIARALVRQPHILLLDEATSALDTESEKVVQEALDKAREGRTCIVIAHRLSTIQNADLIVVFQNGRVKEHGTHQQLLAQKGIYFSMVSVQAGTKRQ

For `CC1(C)CNc2cc(NC(=O)c3cccnc3NCc3ccncc3)ccc21` [motesanib], the EC50 (ABCB1 [1]) was 893 nM.

In the case of `CC(=O)O[C@H]1C(=O)[C@@]2(C)[C@H]([C@H](OC(=O)c3ccccc3)[C@]3(O)C[C@H](OC(=O)[C@H](O)[C@@H](NC(=O)c4ccccc4)c4ccccc4)C(C)=C1C3(C)C)[C@]1(OC(C)=O)CO[C@@H]1C[C@@H]2O` [paclitaxel], the “radiolabelled efflux assay in KB-C2 vs KB-3-1 cells” value (ABCB1 [2]) is reported as “significantly lower compared to that of parental KB-3-1 cells due to active transport of the [^3H]-paclitaxel by the ABCB1 transporter”.
